# In US20210008083A1, “USE OF A BISPHOSPHONATE SALT IN A MEDICAMENT FOR A NATURALLY OCCURRING DISEASE/DISORDER IN A MAMMAL” (Ostafit B.V., priority 2016, published 2021):
# Assays:
# osteoarthritis = conditions: 1 bull, 6 years, 0.2 mg/kg intravenous
# Description: (§1) The following experiments were performed during November 2015-May 2016. In various veterinarian locations in the Netherlands the animals were treated or occasionally the animals were treated on a farm in a stable.
# [1] = test system: osteoarthritis in the SI joint; conditions: one donkey, treated in line with the horses
# Description: as §1
# One donkey was treated in line with the horses above.
# primary osteoarthritis = conditions: guinea pig model of primary osteoarthritis; cited from earlier work
# hip osteoarthritis = conditions: oral 35 mg once a week, 2 years; cited from earlier work
# [2] = test system: osteoarthritis or similar complaints; conditions: 24 dogs, 5-15 years, 0.20 mg/kg intravenous during about 15 min
# Description: as §1
# (§2) Typical symptoms for dogs and other animals mentioned in the description are lameness, stiffness, especially in the morning, after a stroll and when starting, moving with relatively short steps, a preference for lying down, no stamina, various difficulties/limitations, such as in rising or lying down, in keeping up walking pace, rising a leg, jumping on a couch, tail between the legs and squealing from pain.
# [3] = test system: osteoarthritis or similar complaints
# Description: as §1
# For cats it is preferred to provide the dosage in a subcutaneous manner.
# [4] = test system: various disorders and disease; assay: Present bisphosphonates tested on various naturally occurring disorders and diseases in mammals; design: species or system mammals (horses, donkeys, cows, dogs and cats); conditions: dog, in vivo
# From the text: A repetition may be given after 4-12 months. […] In general it is noted that timing of potential benefit of antiresorptives in OA might be important. The greatest benefit in the prior art is typically seen very early in the disease. So to maintain the normal attitude mode, typically once per 1-12 month, preferably once per 2-6 months, such as once per 3-5 month, or put different 1-6 times per year, preferably 2-6 times per year, such as 3-4 times per year.
# For better understanding of these diseases and disorders, the following section is added, such as to categorize these.
# as §2
# knee osteoarthritis = conditions: 2-year period; cited from earlier work
compound,measurement,setting,value
"NCCCC(O)(P(=O)(O)O)P(=O)(O)O.O.O.O [Alendronate, [4-amino-1-hydroxy-1-(hydroxy-oxido-phosphoryl)-butyl]phosphonic acid trihydrate]",bull free of complaints,osteoarthritis,free of complaints within a month
same,result of treatment in donkey,[1],results here were fine
same,effect on disease progression,primary osteoarthritis,Risedronate but not Alendronate slows disease progression
same,clinical efficacy on pain,hip osteoarthritis,had clinical efficacy of pain reduction
same,effect on structural progression of hip osteoarthritis,hip osteoarthritis,failed to show preventive effects for structural progression of hip osteoarthritis
same,complaints of dogs after treatment,[2],All dogs have significantly less complaints or were free of complaints within a few weeks
same,cats free of complaints,"[3]; eight cats, 12-18 years, 0.2 mg/kg subcutaneous or intravenous, one cat still had complaints (other medicines withdrawn)",Seven cats were free of complaints within a few weeks
same,cats showing a good response (substantially free of complaints),[3]; later experiments on more cats,more than 75%
same,outcome of testing on various disorders and disease,[4],tested on various disorders and disease with success
CCCCCN(C)CCC(O)(P(=O)(O)O)P(=O)(O)O [Ibandronate],outcome of testing on various disorders and disease,[4],tested on various disorders and disease with success
NCCCCCC(O)(P(=O)(O)O)P(=O)(O)O [Nerodronate],outcome of testing on various disorders and disease,[4],tested on various disorders and disease with success
CN(C)CCC(O)(P(=O)(O)O)P(=O)(O)O [Olpadronate],outcome of testing on various disorders and disease,[4],tested on various disorders and disease with success
NCCC(O)(P(=O)(O)O)P(=O)(O)O [Pamidronate],outcome of testing on various disorders and disease,[4],tested on various disorders and disease with success
O=P(O)(O)C(O)(Cc1cccnc1)P(=O)(O)O [Risedronate],effect on disease progression,primary osteoarthritis,slows disease progression
same,symptom improvement or progression of radiographic osteoarthritis vs placebo,knee osteoarthritis,no significant differences in symptom improvement or progression of radiographic osteoarthritis
same,outcome of testing on various disorders and disease,[4],tested on various disorders and disease with success
O=P(O)(O)C(O)(Cn1ccnc1)P(=O)(O)O [Zoledronate],outcome of testing on various disorders and disease,[4],tested on various disorders and disease with success
